The results in this text go back to US20160297763A1, “Heteroaryl hydroxamic acid derivatives and their use in the treatment, amelioration or prevention of a viral disease” (priority 2011, published 2016).

For one data set, the system named is influenza A virus A/Aichi/2/68 (H3N2). The data set can be described thus: Cytopathic effect (CPE) assay H3N2. Format: cell-based, influenza A virus (H3N2) on MDCK cells.
Conditions: not given
The method, then:
A possible measure of the […] antiviral activity of the compounds having the formula I or II is the CPE assay disclosed herein. […] In this connection, the reduction in the virus-mediated cytopathic effect (CPE) upon treatment with the compounds was calculated as follows: The cell viability of infected-treated and uninfected-treated cells was determined using an ATP-based cell viability assay (Promega). The response in relative luminescent units (RLU) of infected-untreated samples was subtracted from the response (RLU) of the infected-treated samples and then normalized to the viability of the corresponding uninfected sample resulting in % CPE reduction.
The influenza A virus (IAV) was obtained from American Tissue Culture Collection (A/Aichi/2/68 (H3N2); VR-547). Virus stocks were prepared by propagation of virus on Mardin-Darby canine kidney (MDCK; ATCC CCL-34) cells and infectious titres of virus stocks were determined by the 50% tissue culture infective dose (TCID50) analysis as described in Reed, L. J., and H. Muench. 1938, Am. J. Hyg. 27:493-497.
MDCK cells were seeded in 96-well plates at 2×10^4 cells/well using DMEM/Ham's F-12 (1:1) medium containing 10% foetal bovine serum (FBS), 2 mM L-glutamine and 1 antibiotics (all from PAA). Until infection the cells were incubated for 5 hrs at 37° C., 5.0 CO2 to form a ˜80% confluent monolayer on the bottom of the well. Each test compound was dissolved in DMSO and generally tested at 25 μM and 250 μM. In those cases where the compounds were not soluble at that concentration they were tested at the highest soluble concentration. The compounds were diluted in infection medium (DMEM/Ham's F-12 (1:1) containing 5 μg/ml trypsin, and 1% antibiotics) for a final plate well DMSO concentration of 1%. The virus stock was diluted in infection medium (DMEM/Ham's F-12 (1:1) containing 5 μg/ml Trypsin, 1% DMSO, and 1% antibiotics) to a theoretical multiplicity of infection (MOI) of 0.05.
After removal of the culture medium and one washing step with PBS, virus and compound were added together to the cells. In the wells used for cytotoxicity determination (i.e. in the absence of viral infection), no virus suspension was added. Instead, infection medium was added. Each treatment was conducted in two replicates. After incubation at 37° C., 5% CO2 for 48 hrs, each well was observed microscopically for apparent cytotoxicity, precipitate formation, or other notable abnormalities. Then, cell viability was determined using CellTiter-Glo luminescent cell viability assay (Promega). The supernatant was removed carefully and 65 μl of the reconstituted reagent were added to each well and incubated with gentle shaking for 15 min at room temperature. Then, 60 μl of the solution was transferred to an opaque plate and luminescence (RLU) was measured using Synergy HT plate reader (Biotek).
Relative cell viability values of uninfected-treated versus uninfected-untreated cells were used to evaluate cytotoxicity of the compounds. Substances with a relative viability below 80% at the tested concentration were regarded as cytotoxic and retested at lower concentrations.
Reduction in the virus-mediated cytopathic effect (CPE) upon treatment with the compounds was calculated as follows: The response (RLU) of infected-untreated samples was subtracted from the response (RLU) of the infected-treated samples and then normalized to the viability of the corresponding uninfected sample resulting in % CPE reduction.
(In general: Damage to the host cells serves as the signal in cytopathic effect assays.)
Regarding `Cc1c(Cc2ccc(Cl)cc2)sc2nc(N)[nH]c(=O)c12` [SAV-7609], the “CPE H3N2 (insoluble): solubility in the assay” value is on record as “reduction (%) insoluble”.

The same data set, now with this note: Influenza A virus, H3N2, activity conc 1 (μM per method); read-out: CPE H3N2 reduction (%).
In the case of `CCONC(=O)c1cc(NCc2cccc(OCc3ccccc3)c2)ccn1`, the inhibition at 1 µM was determined as 1.2%.

Staying with this data set, now noted: Influenza A virus, H3N2, activity conc 2 (μM per method); read-out: CPE H3N2 reduction (%).
Consider `O=C(c1cc2ccccc2cn1)N(O)CCCc1ccccc1`, for which the inhibition at 2 µM was determined as 4.4%.
The same measure, in the same setting: the figure for `COC1=CC=C(c2ccnc(C(=O)N(O)Cc3ccccc3)c2)CC1` is -2.5%; for `CC(C)(C)OC(=O)N1C=C(c2ccnc(C(=O)N(O)Cc3ccccc3)c2)CCC1` it is 3.9%; for `CC(C)(C)OC(=O)N1C2C=C(c3ccnc(C(=O)N(O)Cc4ccccc4)c3)CC1CC2` (stereo not shown) it is -5.3%.

The data set is the same for the next values; noted with them: Influenza A virus, H3N2, activity conc 5 (μM per method); read-out: CPE H3N2 reduction (%).
As for `O=C(NO)c1cc(N2CCCCC2)ccn1`, the inhibition at 5 µM is -4.1%.
Turning to `O=C(NO)c1cc(NCc2ccccc2)ccn1`, the inhibition at 5 µM was -0.5%.
For the compound `CN(Cc1ccccc1)c1ccnc(C(=O)N(O)Cc2ccccc2)c1`, the inhibition at 5 µM was 3.8%.
On the same count and under the same terms, then `O=C(NO)c1cc(-c2ccc(Cl)cc2)ccn1`, with 26.6%.
Take `CNC(=O)c1cccc(-c2ccnc(C(=O)N(O)Cc3ccccc3)c2)c1`: the inhibition at 5 µM is -7.5%.
In the case of `CN(c1ccnc(C(=O)NO)c1)S(=O)(=O)Cc1ccccc1`, the inhibition at 5 µM was -1.7%.
For `O=C(c1cc(N2CCCCC2)cc[n+]1[O-])N(O)Cc1ccccc1`, the inhibition at 5 µM is -1.83%.
The same measure, in the same setting: then `Cc1c(-c2ccccc2)sc2nc(NCCN)[nH]c(=O)c12` [SAV-7588], with 2.2%; and `Cc1c(-c2ccccc2)sc2nc(NC3CCCCC3)[nH]c(=O)c12` [SAV-7640], with -3.2%.

The data set is the same for the next values; noted with them: Influenza A virus, H3N2, activity conc 20 (μM per method); read-out: CPE H3N2 reduction (%).
For the compound `CCONC(=O)c1ccc(-c2cccc(CN(C)CCCc3ccccc3)c2)cn1`, the inhibition at 20 µM came to 1.6%.
Same read-out and setting: then `CC(C)(C)OC(=O)N1CCC(c2ccnc(C(=O)N(O)Cc3ccccc3)c2)CC1`, with 31.3%; and `O=C(NO)c1cc(NS(=O)(=O)Cc2cc(Cl)cc(Cl)c2)ccn1`, with 28.9%.
As for `O=C(c1cc(N2CCC(F)(F)C2)ccn1)N(O)Cc1ccccc1`, the inhibition at 20 µM came to 4.6%.

The data set is the same for the next values; noted with them: Influenza A virus, H3N2, activity conc 50 (μM per method); read-out: CPE H3N2 reduction (%).
As to `N/C(=N\O)c1ccc(C(=O)NO)nc1`, the inhibition at 50 µM is -4.8%.
Turning to `CON(C)C(=O)c1ccc2ccccc2n1`, the inhibition at 50 µM was -1.2%.
In the case of `CON(C)C(=O)c1cccc(C)n1`, the inhibition at 50 µM was -0.9%.
Same read-out and setting: then `CCONC(=O)c1cc(N)ccn1`, with 10.5%; and `CCONC(=O)c1ccccn1`, with 12.5%.
Still for that read-out and setting: then `CON(C)C(=O)c1cccc(C(=O)N(C)OC)n1`, with -0.3%.
The same measure, in the same setting: the figure for `CCONC(=O)c1ccc2ccccc2n1` is -2.2%.
For the compound `CCONC(=O)c1cc(NCC2CCN(Cc3ccccc3)CC2)ccn1`, the inhibition at 50 µM stood at 14.8%.
With `CCONC(=O)c1cccc(C)n1`, the inhibition at 50 µM was -2.1%.
Still for that read-out and setting: the figure for `CCONC(=O)c1ccc2c(=O)n(C)c(=O)n(C)c2n1` is -0.4%; for `COc1ccc2nc(C(=O)NOCc3ccccc3)ccc2c1` it is -1.9%; for `Cc1cccc(C(=O)N(C)OCc2ccccc2)n1` it is -2.3%.
Take `CCON(C)C(=O)c1cccc(C)n1`: the inhibition at 50 µM was -1.9%.
Still for that read-out and setting: then `CN(OCc1ccccc1)C(=O)c1ccc(-c2ccccc2)cn1`, with -2.6%.
As to `CN(C)C1CCN(c2ccnc(C(=O)N(O)Cc3ccccc3)c2)CC1`, the inhibition at 50 µM was found to be 12.3%.
Still for that read-out and setting: then `CN1CCN(c2ccnc(C(=O)N(O)Cc3ccccc3)c2)CC1`, with 2.4%; and `O=C(c1cc(C2=CCNCC2)ccn1)N(O)Cc1ccccc1`, with 0.4%; and `O=C(c1cc(N2CCC(N3CCCCC3)CC2)ccn1)N(O)Cc1ccccc1`, with 18.8%.
Take `NC1CCN(c2ccnc(C(=O)N(O)Cc3ccccc3)c2)CC1`: the inhibition at 50 µM was found to be 3.2%.
Still for that read-out and setting: the figure for `CN(C)C(=O)c1cccc(-c2ccnc(C(=O)N(O)Cc3ccccc3)c2)c1` is 5.3%; for `CC(C)(C)OC(=O)N1CCN(c2ccnc(C(=O)N(O)Cc3ccccc3)c2)CC1` it is 34%; for `CC1(C)C=C(c2ccnc(C(=O)N(O)Cc3ccccc3)c2)CC(C)(C)N1` it is 2.8%.
The same measure, in the same setting: the figure for `O=C(c1cc(C2CCNCC2)ccn1)N(O)Cc1ccccc1` is -1.4%.
For the compound `O=C(NO)c1cc(NS(=O)(=O)Cc2ccc(F)cc2)ccn1`, the inhibition at 50 µM is -1.4%.
Take `CN(O)C(=O)c1cc(N2CCCCC2)ccn1`: the inhibition at 50 µM is -0.9%.
Same read-out and setting: the figure for `O=C(c1cc(N2CCNCC2)ccn1)N(O)Cc1ccccc1` is -4.5%; for `O=C(NO)c1cc(NS(=O)(=O)Cc2cccc(F)c2)ccn1` it is -2.4%; for `O=C(c1cc(C2=CCC3(CC2)OCCO3)ccn1)N(O)Cc1ccccc1` it is 5.4%.
Regarding `O=C(c1cc(N2CCC(F)(F)CC2)ccn1)N(O)Cc1ccccc1`, the inhibition at 50 µM was -3.2%.
`O=C(c1cc(NS(=O)(=O)Cc2ccc(F)cc2)ccn1)N(O)Cc1ccccc1`: the inhibition at 50 µM was -1.1%.
For the compound `O=C(NO)c1cc(NS(=O)(=O)Cc2ccccc2)ccn1`, the inhibition at 50 µM stood at 5.1%.
In the case of `O=C(c1cc(C2=CCCNC2)ccn1)N(O)Cc1ccccc1`, the inhibition at 50 µM came to 9.5%.
On to `CN1CCN(c2ccnc(C(=O)N(C)O)c2)CC1`, for which the inhibition at 50 µM was determined as 2.6%.
Still for that read-out and setting: the figure for `CN(O)C(=O)c1cc(N2CCOCC2)ccn1` is 5.7%; for `O=C(c1cc(NS(=O)(=O)Cc2cccc(F)c2)ccn1)N(O)Cc1ccccc1` it is 9.6%; for `O=C(NO)c1cc(NS(=O)(=O)Cc2ccccc2F)ccn1` it is -0.5%.
Same read-out and setting: then `O=C(c1cc(C2CCCNC2)ccn1)N(O)Cc1ccccc1` (stereo not shown), with 6.1%.
On the same count and under the same terms, the figure for `O=C(c1cc(N2CCC(F)CC2)ccn1)N(O)Cc1ccccc1` is 34%; for `O=C(c1cc(NS(=O)(=O)Cc2cccc(Cl)c2)ccn1)N(O)Cc1ccccc1` it is 9.5%; for `O=C(c1cc(NS(=O)(=O)Cc2cccc(C(F)(F)F)c2)ccn1)N(O)Cc1ccccc1` it is 22.4%.
`O=C(NO)c1cc(NS(=O)(=O)Cc2cccc(C(F)(F)F)c2)ccn1`: the inhibition at 50 µM was -5.6%.
Still for that read-out and setting: then `O=C(NO)c1cc(NS(=O)(=O)Cc2ccccc2Cl)ccn1`, with 1.5%.
For the compound `O=C(NO)c1ccccn1`, the inhibition at 50 µM is 3.15%.
Same read-out and setting: then `Nc1ccccc1NC(=O)c1ccc(C(=O)NO)nc1`, with -5.53%.
On the same count and under the same terms, the figure for `O=C(NO)c1cc(NS(=O)(=O)Cc2ccc(Cl)cc2)ccn1` is -3.98%; for `O=C(NO)c1cc(NS(=O)(=O)Cc2ccc(Cl)c(Cl)c2)ccn1` it is 53.4%; for `O=C(NO)c1cc(NS(=O)(=O)Cc2cccc3cccnc23)ccn1` it is 24.4%.

Still in this data set, the particulars now being: Influenza A virus, H3N2, read-out: CPE H3N2 IC50 [μM].
By IC50 is commonly meant the point on the concentration scale where inhibition reaches its midpoint. As to `Cc1cc(-c2sc3nc(N)[nH]c(=O)c3c2C)ccc1Cl` [SAV-7620], the IC50 came out at 29 µM.

The data set is the same for the next values; noted with them: Influenza A virus, H3N2, read-out: CPE H3N2 reduction (%), activity conc 5 (μM per method).
Turning to `Cc1c(-c2ccc(Cl)c(C(F)(F)F)c2)sc2nc(N)[nH]c(=O)c12` [SAV-7623], the inhibition at 5 µM amounted to 1.9%.
For `Cc1c(-c2ccccc2)sc2nc(Nc3ccccc3)[nH]c(=O)c12` [SAV-7638], the inhibition at 5 µM was found to be 8.7%.

Staying with this data set, now noted: Influenza A virus, H3N2, read-out: CPE H3N2 reduction (%), activity conc 50 (μM per method).
With `CCONC(=O)c1cc(N2CCOCC2)ccn1`, the inhibition at 50 µM came to 1.3%.
Turning to `O=C(NO)c1cc(NS(=O)(=O)Cc2ccc(Cl)cc2Cl)ccn1`, the inhibition at 50 µM came out at 60.1%.
Still for that read-out and setting: then `Cc1cc(-c2sc3nc(N)[nH]c(=O)c3c2C)ccc1Cl` [SAV-7620], with 57.8%.

The same data set, now with this note: Influenza A virus, H3N2; read-out: CPE H3N2 IC50.
Turning to `O=C(NO)c1cc(NS(=O)(=O)Cc2cccc3cccnc23)ccn1`, the half-maximal inhibitory concentration (IC50) stood at 78 µM.
